{"source": "patent US4801613A", "about": "“Bradykinin antagonist peptides” (Nova Technology Limited Partnership, priority 1987, dated 1989)", "key": {"kininases [1]": {"tested_on": "kininases", "settings": "rat, in vivo"}, "kininases [2]": {"tested_on": "kininases", "settings": "anesthetized rat; single pass in the pulmonary circulation"}, "[3]": {"settings": "Ferreira & Vane 1967; cited from earlier work"}, "[4]": {"tested_on": "isolated guinea pig ileum", "type": "cell-based", "experimental": "(§1) The bradykinin antagonists were assayed on isolated rat uterus in natural or induced estrus and on guinea pig ileum, according to the commonly accepted assay methods for bradykinin and related kinins as described by Trautschold (Handbook of Expt. Pharmacol. Vol. 25, Springer Verlag, pp 53-55, 1970) for inhibition of the myotropic activity of bradykinin. The inhibition potencies, as determined according to the commonly accepted manner described by Schild for antagonists of biologically active compounds (Br. J. Pharmacol. 2:189, 1947), are determined on isolated rat uterus (RUT) and isolated guinea pig ileum (GPI). In the assays, a dose-response curve is determined for the reference substance bradykinin. The dose of bradykinin which produced a half maximal contraction of tissue is the ED50 dose. An amount of bradykinin equivalent to twice the ED50 dose is administered to the tissue 30 seconds after the start of incubation of the tissue with a dose of antagonist. Doses of antagonist are increased in this protocol until pre-incubation with a dose of antagonist reduces the contraction in response to the double ED50 dose of bradykinin to response of a single ED50 dose of bradykinin. The pA2 value represents the negative logarithm of the molar concentration of antagonist necessary to reduce the response of a double ED50 dose of bradykinin to that of an ED50 dose. One unit of pA2 value represents an order of magnitude change in potency. For comparison, the negative log of the dose of BK, the dose which causes half maximal contraction of the tissues, is commonly known as the pD2 value. The pD2 value for bradykinin is 7.9 on the rat uterus and 7.4 on the guinea pig ileum.\n(§2) In each case, as shown, the BK-related antagonists inhibited contractions produced by BK-related agonists, but had no effect on the non-kinin myotropic peptide substances. The inhibition potencies are listed as pA2 values as described above."}, "kininases [5]": {"tested_on": "kininases", "settings": "anesthetized rat; Roblero, Ryan and Stewart 1973; cited from earlier work"}, "isolated rat uterus": {"tested_on": "isolated rat uterus", "type": "cell-based", "experimental": "as §1"}, "guinea pig ileum": {"tested_on": "guinea pig ileum", "type": "cell-based", "experimental": "as §1, §2"}}, "note": "Read-outs that look alike come from different tables or passages of the source. Non-standard residues stand in square brackets, D forms with d. Residues, ends and D or L forms follow the SMILES beside them. No end group written: not given here. 2Thi = N[C@@H](Cc1cccs1)C(=O)O", "data": [{"compound": "N=C(N)NCCC[C@@H](N)C(=O)N[C@@H](CCCNC(=N)N)C(=O)N1CCC[C@H]1C(=O)N1CCC[C@H]1C(=O)NCC(=O)N[C@@H](Cc1ccccc1)C(=O)N[C@@H](CO)C(=O)N1CCC[C@H]1C(=O)N[C@@H](Cc1ccccc1)C(=O)N[C@@H](CCCNC(=N)N)C(=O)O", "note": "[DArg--BK] (H-[dR]RPPGFSPFR-OH)", "values": [{"measurement": "% DESTRUCTION", "setting": "kininases [1]", "value": 92, "unit": "%"}]}, {"compound": "N=C(N)NCCC[C@H](NC(=O)[C@H](Cc1cccs1)NC(=O)[C@@H]1CCCN1C(=O)[C@H](CO)NC(=O)[C@H](Cc1cccs1)NC(=O)CNC(=O)[C@@H]1CCCN1C(=O)[C@@H]1CCCN1C(=O)[C@H](CCCNC(=N)N)NC(=O)[C@H](CCCCN)NC(=O)[C@@H](N)CCCCN)C(=O)O", "note": "[Lys--Lys--Thi^5,8 --BK] (H-KKRPPG[2Thi]SP[2Thi]R-OH)", "values": [{"measurement": "% DESTRUCTION", "setting": "kininases [2]", "value": 0, "unit": "%"}]}, {"compound": "RPPGFSPFR [Bradykinin (BK), Arg-Pro-Pro-Gly-Phe-Ser-Pro-Phe-Arg]", "values": [{"measurement": "% DESTRUCTION", "setting": "kininases [2]", "value": 98, "unit": "%"}, {"measurement": "half life in the systemic circulation", "setting": "[3]", "value": "less than 30 seconds"}, {"measurement": "pD2 value (negative log of dose causing half maximal contraction)", "setting": "[4]; guinea pig ileum", "value": 7.4}, {"measurement": "destruction on a single passage through the pulmonary circulation", "setting": "kininases [5]", "value": "98-99%"}, {"measurement": "pD2 value (negative log of dose causing half maximal contraction)", "setting": "isolated rat uterus; rat uterus", "value": 7.9}]}, {"compound": "N=C(N)NCCC[C@H](NC(=O)[C@H](Cc1cccs1)NC(=O)[C@@H]1CCCN1C(=O)[C@H](CO)NC(=O)[C@H](Cc1cccs1)NC(=O)CNC(=O)[C@@H]1CCCN1C(=O)[C@@H]1CCCN1C(=O)[C@@H](N)CCCNC(=N)N)C(=O)O", "note": "[Thi^5,8 --BK] (H-RPPG[2Thi]SP[2Thi]R-OH)", "values": [{"measurement": "% DESTRUCTION", "setting": "kininases [2]", "value": 95, "unit": "%"}]}, {"compound": "N=C(N)NCCC[C@H](NC(=O)[C@H](Cc1ccccc1)NC(=O)[C@@H]1CCCN1C(=O)[C@H](CO)NC(=O)[C@H](Cc1ccccc1)NC(=O)CNC(=O)[C@@H]1CCCN1C(=O)[C@@H]1CCCN1C(=O)[C@H](CCCNC(=N)N)NC(=O)[C@H](CCCCN)NC(=O)[C@@H](N)CCCCN)C(=O)O", "note": "[Lys--Lys--BK]", "values": [{"measurement": "% DESTRUCTION", "setting": "kininases [1]", "value": 0, "unit": "%"}]}, {"compound": "N=C(N)NCCC[C@H](NC(=O)[C@H](Cc1ccccc1)NC(=O)[C@@H]1CCCN1C(=O)[C@H](CO)NC(=O)[C@H](Cc1ccccc1)NC(=O)CNC(=O)[C@@H]1CCCN1C(=O)[C@@H]1CCCN1C(=O)[C@H](CCCNC(=N)N)NC(=O)[C@H](N)CCCCN)C(=O)O", "note": "[DLys--BK]", "values": [{"measurement": "% DESTRUCTION", "setting": "kininases [1]", "value": 89, "unit": "%"}]}, {"compound": "NCCCC[C@H](N)C(=O)N[C@@H](CCCN=C(N)N)C(=O)N1CCC[C@H]1C(=O)N1CCC[C@H]1C(=O)NCC(=O)N[C@@H](Cc1ccccc1)C(=O)N[C@@H](CO)C(=O)N1CCC[C@H]1C(=O)N[C@@H](Cc1ccccc1)C(=O)N[C@@H](CCCN=C(N)N)C(=O)O", "note": "[Lys--BK]", "values": [{"measurement": "% DESTRUCTION", "setting": "kininases [1]", "value": 95, "unit": "%"}]}, {"compound": "N=C(N)NCCC[C@H](NC(=O)[C@H](Cc1ccccc1)NC(=O)[C@@H](Cc1ccccc1)NC(=O)[C@H](CO)NC(=O)[C@H](Cc1ccccc1)NC(=O)CNC(=O)[C@@H]1CCCN1C(=O)[C@@H]1CCCN1C(=O)[C@@H](N)CCCNC(=N)N)C(=O)O", "note": "[Example 1, Arg-Pro-Pro-Gly-Phe-Ser-DPhe-Phe-Arg] (H-RPPGFS[dF]FR-OH)", "values": [{"measurement": "GUINEA PIG ILEUM BK (pA2)", "setting": "[4]", "value": 5.0}, {"measurement": "GUINEA PIG ILEUM KAL (pA2)", "setting": "guinea pig ileum", "value": 5.6}, {"measurement": "GUINEA PIG ILEUM MK--BK (pA2)", "setting": "guinea pig ileum", "value": 6.0}, {"measurement": "RUT AG = agonist potency relative to BK = 100", "setting": "isolated rat uterus", "value": 1, "unit": "%"}]}]}
